The values that follow come from US9902986B2, “Enterobactin conjugates and uses thereof” (Massachusetts Institute of Technology, priority 2013, dated 2018).

Each structure is given as a SMILES string. Entries after “also recorded” stand apart in the source; their conditions may differ.

Experiment [1] concerns E. coli CFT073. Put plainly: Competition assay with native siderophores, E. coli CFT073. The experiment is classed as cell-based, Escherichia coli. The settings on record: conjugate 100 nM, varied Ent, MGE or DGE, 50% MHB, 200 μM DP, 30° C., t=19 h. As to the method:
These assays were performed following the general procedure described herein except that varying concentrations of Ent, MGE, or DGE, each of which was unmodified, were mixed with Ent-Amp, Ent-Amx, MGE-Amp, MGE-Amx, DGE-Amp, or DGE-Amx. Ent was synthesized following a literature procedure^55 and stored as DMSO stock solution at −20° C. MGE and DGE were prepared from Ent using MceC and IroB as described for MGE-PEG3-N3 and DGE-PEG3-N3.
In another exemplary experiment, select conjugates (Ent-Amp, MGE-Amp, and DGE-Amp) with select native siderophores (Ent, MGE, and DGE) were tested against the uropathogenic strain E. coli CFT073 in 50% MHB, t=19 h, 30° C. 2,2′-dipyridyl (DP, 200 μM) was added to provide conditions of iron limitation. The concentration of the conjugates was fixed at 100 nM and the concentration of the native siderophores was varied.
In another exemplary experiment, select conjugates (Ent-Amx, MGE-Amx, and DGE-Amx) with select native siderophores (Ent, MGE, and DGE) were tested against the uropathogenic strain E. coli CFT073 in 50% MHB, t=19 h, 30° C. DP (200 μM) was added to provide conditions of iron limitation. The concentration of the conjugates was fixed at 100 nM and the concentration of the native siderophores was varied.

In experiment [2] the test system is mixed culture of E. coli K-12 and E. coli CFT073. The settings on record: iron-deficient conditions (200 μM DP), 50% MHB, 30° C., t=19 h. As to the method:
(§1) No antibiotic marker was included in these cultures.
2,2′-dipyridyl (DP, 200 μM) was added to provide conditions of iron limitation.

For experiment [3], the system named is E. coli CFT073. Description: Antimicrobial activity assay in the presence of lipocalin 2. In kind it is cell-based, Escherichia coli. The settings on record: conjugate 100 nM, lcn2 1 μM, M9 minimal media, 37° C., 24 h. As to the method: The bacterial cultures were grown in modified M9 minimal medium (Blango, M. G.; Ott, E. M.; Erman, A.; Veranic, P.; Mulvey, M. A. Forced Resurgence and Targeting of Intracellular Uropathogenic Escherichia coli Reservoirs. PLoS One 2014, 9, e93327-e93335) (Na2HPO4 6.8 g/L, KH2PO4 3 g/L, NaCl 0.5 g/L, NH4Cl 1 g/L, 0.4% glucose, 2 mM MgSO4, 0.1 mM CaCl2, 0.2% casein amino acids, and 16.5 μg/mL of thiamine) overnight. […] The cultures were serially diluted to an OD600 value of 0.00001 in fresh modified M9 minimal medium. Lipocalin 2 (Lcn2) was diluted into PBS buffer to a concentration of 20 μM upon arrival and frozen at −20° C. until use. Bovine serum albumin (BSA, Sigma-Aldrich) was prepared in PBS buffer to achieve a concentration of 20 μM. […] The bacterial growth was determined by measuring OD600 using the plate reader. […] The resulting mean OD600 was reported, and the error bars were the standard deviation. […] In contrast, Lcn2 had no effect of the antibacterial activity of MGE-Amp, MGE-Amx, DGE-Amp, or DGE-Amx.

Experiment [4] concerns mixed culture of E. coli K-12 and E. coli UTI89. Description: Mixed culture assay, E. coli K-12 and E. coli UTI89. The note with it: iron-deficient conditions (200 μM DP), 50% MHB, 30° C., t=19 h. The experiment is classed as cell-based, Escherichia coli.
Excerpt: as §1

For a further experiment, the system named is E. coli 25922. Description: Antimicrobial activity assay, E. coli 25922. The experiment is classed as cell-based, Escherichia coli. The settings on record: 50% MHB, 200 μM DP (iron-deficient), 30° C., t=19 h. As to the method:
No antibiotic marker was included in these cultures. […] Bacterial growth was determined by measuring OD600 using a BIOTEK SYNERGY HT plate reader. Each well condition was prepared in duplicate, and at least three independent replicates were conducted on different days. The resulting mean OD600 are reported and the error bars are the standard deviation.
In another exemplary experiment, antibacterial activities of the conjugates were tested against E. coli 25922 in 50% MHB at 30° C., t=19 h. […] Under iron-deficient conditions, Ent-Amp and MGE-Amp provided a complete growth inhibition at 100 nM whereas 1 μM of DGE-Amp was required to provide a complete growth inhibition.

The subject of another experiment is E. coli B. Description: Antimicrobial activity assay, E. coli B. The experiment is classed as cell-based, Escherichia coli. The settings on record: 50% MHB, 30° C., t=19 h. As to the method: Overnight cultures of the bacterial strains were prepared by inoculating 5 mL of LB with the bacterial freezer stocks and the cultures were incubated at 37° C. in a tabletop incubator shaker set at 150 rpm. The overnight culture grew to saturation and was diluted 1:100 into 5 mL of fresh LB medium containing DP (200 μM) and incubated at 37° C. with shaking at 150 rpm until OD600 reached 0.6. The cultures were subsequently diluted to an OD600 value of 0.001 in 50% MHB medium (11.5 g/L) with or without DP (200 μM). No antibiotic marker was included in these cultures. A 90-μL aliquot of the diluted culture was combined with a 10-μL aliquot of a 10× solution of the tested compounds in a 96-well plate, which was wrapped in […] and incubated at 30° C. with shaking at 150 rpm for 19 h. Bacterial growth was determined by measuring OD600 using a BIOTEK SYNERGY HT plate reader. Each well condition was prepared in duplicate, and at least three independent replicates were conducted on different days. The resulting mean OD600 are reported and the error bars are the standard deviation.
In another exemplary experiment, antibacterial activities of the conjugates were tested against E. coli B in 50% MHB at 30° C., t=19 h. DP (200 μM) was added to provide conditions of iron limitation.

`CC1(C)SC2C(NC(=O)C(NC(=O)CCCc3cn(CCOCCOCCOCCNC(=O)c4cc(O)c(O)c(C(=O)NC5COC(=O)C(NC(=O)c6cc(C7OC(CO)C(O)C(O)C7O)cc(O)c6O)COC(=O)C(NC(=O)c6cc(C7OC(CO)C(O)C(O)C7O)cc(O)c6O)COC5=O)c4)nn3)c3ccccc3)C(=O)N2C1C(=O)O` (stereo not shown) [DGE-Amp]: in the experiment on E. coli CFT073 [1], the “attenuation of antibacterial activity by native siderophores” value (“attenuation of antibacterial activity” below) was “attenuated by Ent, MGE, and DGE”. Besides, in experiment [2], the “growth inhibition in mixed culture at 100 nM” value (shortened to “growth inhibition … at 100 nM”) is on record as “only inhibited the growth of E. coli CFT073”. In addition, the “effect of lipocalin-2 (lcn2) on antibacterial activity” value (“effect of lipocalin-2 (lcn2)” for short) with E. coli CFT073 [3] was “no effect; also recorded: unaffected; also recorded: not attenuated”. The “growth inhibition … at 100 nM” value in experiment [4] was “only inhibited the growth of E. coli UTI89”. Also, the “concentration required to provide complete growth inhibition” value in the experiment on E. coli 25922 turned out to be 1 µM. Also, in the experiment with E. coli B (200 μM DP), the “antibacterial activity at 100 nM” value was “inactive” and the “concentration at which growth inhibition was observed (attributed to iron deprivation)” value turned out to be 10 µM.

On to `CC1(C)SC2C(NC(=O)C(NC(=O)CCCc3cn(CCOCCOCCOCCNC(=O)c4cc(O)c(O)c(C(=O)NC5COC(=O)C(NC(=O)c6cccc(O)c6O)COC(=O)C(NC(=O)c6cccc(O)c6O)COC5=O)c4)nn3)c3ccccc3)C(=O)N2C1C(=O)O` (stereo not drawn) [Ent-Amp], for which the “attenuation of antibacterial activity” value in the experiment on E. coli CFT073 [1] was “only attenuated in the presence of Ent and MGE”. In addition, the “concentration providing complete growth inhibition for both strains” value in experiment [2] and in experiment [4] was 100 nM throughout. The “effect of lipocalin-2 (lcn2)” value in the experiment with E. coli CFT073 [3] is “attenuated in the presence of Lcn2”. Moreover, the “concentration providing complete growth inhibition” value with E. coli 25922 and in the experiment on E. coli B (200 μM DP (iron-deficient)) was 100 nM each time.

Regarding `CC1(C)SC2C(NC(=O)C(NC(=O)CCCc3cn(CCOCCOCCOCCNC(=O)c4cc(O)c(O)c(C(=O)NC5COC(=O)C(NC(=O)c6cccc(O)c6O)COC(=O)C(NC(=O)c6cccc(O)c6O)COC5=O)c4)nn3)c3ccc(O)cc3)C(=O)N2C1C(=O)O` (stereo not drawn) [Ent-Amx], the “attenuation of antibacterial activity” value in the experiment with E. coli CFT073 [1] is “only attenuated in the presence of Ent or MGE”. Further, the “effect of lipocalin-2 (lcn2)” value with E. coli CFT073 [3] was “attenuated in the presence of Lcn2”.

Regarding `CC1(C)SC2C(NC(=O)C(NC(=O)CCCc3cn(CCOCCOCCOCCNC(=O)c4cc(O)c(O)c(C(=O)NC5COC(=O)C(NC(=O)c6cc(C7OC(CO)C(O)C(O)C7O)cc(O)c6O)COC(=O)C(NC(=O)c6cccc(O)c6O)COC5=O)c4)nn3)c3ccccc3)C(=O)N2C1C(=O)O` (stereo not shown) [MGE-Amp], in the experiment with E. coli CFT073 [1], the “attenuation of antibacterial activity” value is “attenuated by Ent, MGE, and DGE”. The “growth inhibition … at 100 nM” value in experiment [2] was “only inhibited the growth of E. coli CFT073”; in experiment [4] it was “only inhibited the growth of E. coli UTI89”. Also, the “effect of lipocalin-2 (lcn2)” value with E. coli CFT073 [3] is given as “no effect; also recorded: unaffected; also recorded: not attenuated”. Moreover, the “concentration providing complete growth inhibition” value in the experiment with E. coli 25922 turned out to be 100 nM. The “antibacterial activity at 100 nM” value in the experiment with E. coli B (200 μM DP) is “inactive”. For the same compound, the “antibacterial activity, comparison” value in the experiment on E. coli B (200 μM DP) is on record as “more active against the bacteria than DGE-Amp”.
